Measured values as given in PubChem BioAssay AID1963975 (Molecular Pharmacology Branch, DTP, NCI, 2024).

Tested on: 624824-186-R-J2-PDC multicell spheroids, viability
Assay: Anticancer human tumor 624824-186-R-J2-PDC patient-derived colon adenocarcinoma cell line growth inhibition [PI3K]
Details: for IC50: curve of first compound; for viability, T/C: stronger effect = lower value
Procedure, shortened: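 Stroma-containing spheroids: tumor line, pooled-donor HUVEC, hMSC. Treatments: targeted agents with PI3K inhibitors. Dosing: clinically relevant, half-log spacing, 10 microM ceiling without known Cmax. Read-out: cell viability.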

[1] = second compound 0.00316 µM, first compound 0.0316 µM
[2] = second compound 0.00316 µM, first compound 0.1 µM
[3] = second compound 0.00316 µM, first compound 0.316 µM
[4] = second compound 0.00316 µM, first compound 1 µM
[5] = second compound 0.00316 µM, first compound 3.16 µM
[6] = second compound 0.00316 µM, first compound 10 µM
[7] = second compound 0.01 µM, first compound 0.0316 µM
[8] = second compound 0.01 µM, first compound 0.1 µM
[9] = second compound 0.01 µM, first compound 0.316 µM
[10] = second compound 0.01 µM, first compound 1 µM
[11] = second compound 0.01 µM, first compound 3.16 µM
[12] = second compound 0.01 µM, first compound 10 µM
[13] = second compound 0.0316 µM, first compound 0.0316 µM
[14] = second compound 0.0316 µM, first compound 0.1 µM
[15] = second compound 0.0316 µM, first compound 0.316 µM
[16] = second compound 0.0316 µM, first compound 1 µM
[17] = second compound 0.0316 µM, first compound 3.16 µM
[18] = second compound 0.0316 µM, first compound 10 µM
[19] = second compound 0.1 µM, first compound 0.0316 µM
[20] = second compound 0.1 µM, first compound 0.1 µM
[21] = second compound 0.1 µM, first compound 0.316 µM
[22] = second compound 0.1 µM, first compound 1 µM
[23] = second compound 0.1 µM, first compound 3.16 µM
[24] = second compound 0.1 µM, first compound 10 µM
[25] = second compound 0.316 µM, first compound 0.0316 µM
[26] = second compound 0.316 µM, first compound 0.1 µM
[27] = second compound 0.316 µM, first compound 0.316 µM
[28] = second compound 0.316 µM, first compound 1 µM
[29] = second compound 0.316 µM, first compound 3.16 µM
[30] = second compound 0.316 µM, first compound 10 µM
[31] = second compound 1 µM, first compound 0.0316 µM
[32] = second compound 1 µM, first compound 0.1 µM
[33] = second compound 1 µM, first compound 0.316 µM
[34] = second compound 1 µM, first compound 1 µM
[35] = second compound 1 µM, first compound 3.16 µM
[36] = second compound 1 µM, first compound 10 µM
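Also: spheroids exposed to agents for 7 days before viability read.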
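For viability, T/C in this document: 100% = DMSO vehicle treated spheroids.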

Structure (SMILES): CCCS(=O)(=O)Nc1ccc(F)c(C(=O)c2c[nH]c3ncc(-c4ccc(Cl)cc4)cc23)c1F + COc1c(OCCCN2CCOCC2)ccc2c3n(c(=NC(=O)c4cnc(N)nc4)nc12)CCN3
- IC50 (second compound 0.00316 µM): 9490 nM
- IC50 (second compound 0.01 µM): 7330 nM
- IC50 (second compound 0.0316 µM): 2200 nM
- IC50 (second compound 0.1 µM): 1760 nM
- IC50 (second compound 0.316 µM): 178 nM
- IC50 (second compound 1 µM): 111 nM
- viability, T/C [1]: 84.7%
- viability, T/C [2]: 95.8%
- viability, T/C [3]: 79.4%
- viability, T/C [4]: 111%
- viability, T/C [5]: 123%
- viability, T/C [6]: 47.7%
- viability, T/C [7]: 81.5%
- viability, T/C [8]: 95.2%
- viability, T/C [9]: 82.3%
- viability, T/C [10]: 87.4%
- viability, T/C [11]: 82.1%
- viability, T/C [12]: 38%
- viability, T/C [13]: 84.2%
- viability, T/C [14]: 64.8%
- viability, T/C [15]: 61.6%
- viability, T/C [16]: 55.6%
- viability, T/C [17]: 60.6%
- viability, T/C [18]: 30.2%
- viability, T/C [19]: 65.3%
- viability, T/C [20]: 54.4%
- viability, T/C [21]: 50%
- viability, T/C [22]: 48.1%
- viability, T/C [23]: 49.8%
- viability, T/C [24]: 21.4%
- viability, T/C [25]: 64.3%
- viability, T/C [26]: 51%
- viability, T/C [27]: 42.8%
- viability, T/C [28]: 37.9%
- viability, T/C [29]: 39.5%
- viability, T/C [30]: 18.6%
- viability, T/C [31]: 56.5%
- viability, T/C [32]: 50.1%
- viability, T/C [33]: 44.2%
- viability, T/C [34]: 35.4%
- viability, T/C [35]: 35.1%
- viability, T/C [36]: 20.6%

Structure (SMILES): C[C@@H](NC(=O)c1ncnc(N)c1Cl)c1ncc(C(=O)Nc2cc(C(F)(F)F)c(Cl)cn2)s1 + COc1c(OCCCN2CCOCC2)ccc2c3n(c(=NC(=O)c4cnc(N)nc4)nc12)CCN3
- IC50 (second compound 0.00316 µM): > 10000 nM
- IC50 (second compound 0.01 µM): > 10000 nM
- IC50 (second compound 0.0316 µM): > 10000 nM
- IC50 (second compound 0.1 µM): 1020 nM
- IC50 (second compound 0.316 µM): 505 nM
- IC50 (second compound 1 µM): 511 nM
- viability, T/C [1]: 106%
- viability, T/C [2]: 112%
- viability, T/C [3]: 93.5%
- viability, T/C [4]: 84.4%
- viability, T/C [5]: 62.2%
- viability, T/C [6]: 65.2%
- viability, T/C [7]: 95.5%
- viability, T/C [8]: 119%
- viability, T/C [9]: 106%
- viability, T/C [10]: 70.1%
- viability, T/C [11]: 61.6%
- viability, T/C [12]: 62.6%
- viability, T/C [13]: 91.3%
- viability, T/C [14]: 93%
- viability, T/C [15]: 88.9%
- viability, T/C [16]: 63.9%
- viability, T/C [17]: 63.4%
- viability, T/C [18]: 48%
- viability, T/C [19]: 88.7%
- viability, T/C [20]: 73.9%
- viability, T/C [21]: 64.6%
- viability, T/C [22]: 50.2%
- viability, T/C [23]: 38.7%
- viability, T/C [24]: 33.1%
- viability, T/C [25]: 77.2%
- viability, T/C [26]: 59.9%
- viability, T/C [27]: 55.7%
- viability, T/C [28]: 46.4%
- viability, T/C [29]: 33.8%
- viability, T/C [30]: 28.9%
- viability, T/C [31]: 62.4%
- viability, T/C [32]: 63.4%
- viability, T/C [33]: 52.1%
- viability, T/C [34]: 42.5%
- viability, T/C [35]: 39.2%
- viability, T/C [36]: 26.1%

Structure (SMILES): Cn1ncnc1[C@H]1c2n[nH]c(=O)c3cc(F)cc(c23)N[C@@H]1c1ccc(F)cc1 + COc1c(OCCCN2CCOCC2)ccc2c3n(c(=NC(=O)c4cnc(N)nc4)nc12)CCN3
- IC50 (second compound 0.00316 µM): > 100 nM
- IC50 (second compound 0.01 µM): > 100 nM
- IC50 (second compound 0.0316 µM): > 100 nM
- IC50 (second compound 0.1 µM): > 100 nM
- IC50 (second compound 0.316 µM): > 100 nM
- IC50 (second compound 1 µM): > 100 nM
- viability, T/C (second compound 0.00316 µM, first compound 0.000316 µM): 93.9%
- viability, T/C (second compound 0.00316 µM, first compound 0.001 µM): 83.3%
- viability, T/C (second compound 0.00316 µM, first compound 0.00316 µM): 96.7%
- viability, T/C (second compound 0.00316 µM, first compound 0.01 µM): 72%
- viability, T/C [1]: 88.8%
- viability, T/C [2]: 78.4%
- viability, T/C (second compound 0.01 µM, first compound 0.000316 µM): 94.2%
- viability, T/C (second compound 0.01 µM, first compound 0.001 µM): 81.2%
- viability, T/C (second compound 0.01 µM, first compound 0.00316 µM): 79.8%
- viability, T/C (second compound 0.01 µM, first compound 0.01 µM): 84.5%
- viability, T/C [7]: 93.3%
- viability, T/C [8]: 77.7%
- viability, T/C (second compound 0.0316 µM, first compound 0.000316 µM): 90.2%
- viability, T/C (second compound 0.0316 µM, first compound 0.001 µM): 81.9%
- viability, T/C (second compound 0.0316 µM, first compound 0.00316 µM): 84.1%
- viability, T/C (second compound 0.0316 µM, first compound 0.01 µM): 83.1%
- viability, T/C [13]: 88%
- viability, T/C [14]: 95.6%
- viability, T/C (second compound 0.1 µM, first compound 0.000316 µM): 72.2%
- viability, T/C (second compound 0.1 µM, first compound 0.001 µM): 77.4%
- viability, T/C (second compound 0.1 µM, first compound 0.00316 µM): 70.6%
- viability, T/C (second compound 0.1 µM, first compound 0.01 µM): 73.7%
- viability, T/C [19]: 84.9%
- viability, T/C [20]: 76.8%
- viability, T/C (second compound 0.316 µM, first compound 0.000316 µM): 71.1%
- viability, T/C (second compound 0.316 µM, first compound 0.001 µM): 65.2%
- viability, T/C (second compound 0.316 µM, first compound 0.00316 µM): 61.7%
- viability, T/C (second compound 0.316 µM, first compound 0.01 µM): 62.6%
- viability, T/C [25]: 76.3%
- viability, T/C [26]: 60.9%
- viability, T/C (second compound 1 µM, first compound 0.000316 µM): 55.7%
- viability, T/C (second compound 1 µM, first compound 0.001 µM): 50.2%
- viability, T/C (second compound 1 µM, first compound 0.00316 µM): 55.9%
- viability, T/C (second compound 1 µM, first compound 0.01 µM): 56.6%
- viability, T/C [31]: 63.6%
- viability, T/C [32]: 60.8%
